Measured values taken from patent US7868163B2, “Adenyl dinucleotides with antitumour activity and a method of preparing thereof” (Universita' Degli Studi Di Genova, priority 2005, dated 2011).
Like-named read-outs stand apart in the source and are kept apart here.

Experiments:
[1] = tested on: CFC (colony forming cells); assay: CFC colony growth from cord blood mononuclear cells in semi-solid medium; assay type: cell-based, human; conditions: for IC50: read-out: IC50, inhibition of CFC colony growth; for reduction of toxicity by digestion with NPP and CIP: FIG. 4, CFC growth
Description: Mononuclear cells isolated from cord blood were incubated in the presence of various concentrations of P18 (▴), P24 (▪) and the iso-adenosine units resulting from the enzymatic digestion of P18 (Δ) and P24 (□). After 24 hours, aliquots of cells (1-2×10^4) were seeded in semi-solid medium to allow for colony growth. Results are expressed as percentage of inhibition of colony growth compared with controls, represented by cells incubated with the same dilution of chromatographic buffer as present in the HPLC-purified compounds. The IC50 values were obtained from the logarithmic regression curves (R≧0.97). The results shown in this figure are the mean from at least three different experiments.
Mononuclear cells were isolated from cord blood (CB MNC) by a density gradient, washed by centrifugation and resuspended in complete medium (Mosmann, T. (1983) J. Immunol. Methods 65, 55-63). Cells (10^6/ml) were incubated for 24 hours in complete medium in the presence of different dinucleotides at concentrations comprised between 20 and 0.4 μM. Then, aliquots of cells (1-2×10^4) were seeded in semi-solid medium, supplemented with haemopoietic growth factors (Methocult, Stem Cell Technologies, Vancouver, BC), in order to allow colonies to develop. After 2 weeks in culture, the colonies which were grown were microscopically identified according to standard criteria (CFU-E, CFU-GM and CFU-GEM) and counted: each colony identifies a colony forming cell (CFC).

CD38^− HeLa = assay: MTT reduction proliferation assay, CD38- HeLa; assay type: cell-based, human; conditions: 24 hours
Description: The effect of P18 and P24 on the proliferation of several cell lines was determined by the MTT reduction assay (Mosmann, T. (1983) J. Immunol. Methods 65, 55-63). […] After 24 hours, 10 μl of a 5 mg/ml solution of MTT were added to each well and the plates incubated for a further 2 hours. The supernatant was then removed from each well and the blue crystals produced by the reduction of the dye were dissolved in DMSO (200 μl/well). The optical absorbance at 570 nm was determined with a BioRad microplate reader.
In these experiments, cells were seeded onto 96 well plates (3×10^4 cells per well) and incubated in the presence of increasing concentrations of P18 or P24. After 24 hours, the percentage of viable cells was evaluated by spectrophotometric measurement of the concentration of reduced MTT (see Materials and Methods). The means of at least three separate experiments are shown (s.d.≦20% of the mean value). The production of P18 and P24 by human CD38 cyclase, with inhibitory effects on colony growth, together with cADPR, with stimulatory effect, may be at least partly responsible for the colony growth inhibition observed during long term culture of human HP cells on CD38^+ stroma. […]

CD38^− HeLa cells = assay: Intracellular calcium assay (FURA 2-AM), CD38- HeLa; assay type: cell-based, human; conditions: 10 μM for 18 hours; for tapsigargine-induced release of calcium from ER stores [Ca^2+]i: 1 μM tapsigargine
Description: Adherent CD38^+ and CD38^− human HeLa cells on 20 mm-diameter coverslips were incubated in complete medium in the presence of […] P18 or P24 for […]. The cells were then washed, incubated with 6 μM Fura 2-acetoxymethyl ester (FURA 2-AM) in standard saline (135 mM NaCl, 5.4 mM KCl, 1.8 mM CaCl2, 1 mM MgCl2, 5 mM Hepes, 10 mM glucose, pH 7.4) for 45 minutes at 37° C. and then washed several times with saline. Calcium measurements were performed in a 200-μl chamber mounted on an inverted microscope, as described in detail in Zocchi E., et al. (1998) J. Biol. Chem. 273, 8017-8024. After determination of basal [Ca^2+]i levels, 1 μM tapsigargine was added to induce the release of calcium from tapsigargine-sensitive stores ([…]). The parameter values needed for calibration were obtained at the end of the experimental measurements, as described in Zocchi E., et al. (1998) J. Biol. Chem. 273, 8017-8024.
Basal cytosolic calcium and tapsigargine-induced release of calcium from […] (ER) stores (in bold in Table 4) were measured in CD38^+ and CD38^− HeLa cells loaded with FURA 2-AM and incubated in the absence (control) or in the presence of P18 or P24 at a concentration of 10 μM for 18 hours. The results obtained, expressed as [Ca^2+]I nanomolarity, are summarised in Table 4, showing mean results from 8 separate experiments (s.d.≦15% of the mean value).

Recombinant CD38 = assay: Hydrolysis by recombinant CD38
Description: (§1) ADP-ribosyl cyclases from lower and higher Metazoa were incubated in the presence of 0.1 mM cADPR and 1 mM adenine at pH 7.4 in 10 mM Tris-HCl (A, B and C) or in PBS-glucose (D) at 22° C. (A and B) or at 37° C. (C and D) for 4 hours. Aliquots of the various incubations were deproteinised with TCA (trichloroacetic acid) and subjected to HPLC (analytical phosphate). Chromatograms representative of each incubation are shown. A. A. polypoides; B. A. californica; C. Human CD38 (recombinant); D. Human HeLa cells transfected with sense and antisense human CD38 (dashed chromatogram).
(§2) In table 1, the absolute values of the peak-forming and -hydrolysing activities are compared with the cADPR-forming and -hydrolysing activities for each enzyme. The activities are expressed as nmol/min/mg.

[2] = tested on: HeLa-CD38^+ (whole cells); assay: Hydrolysis by CD38+ HeLa whole cells
Description: as §1, §2

CD38^− cells = assay: Uptake of extracellularly added dinucleotides in CD38- cells; assay type: in vitro ADME, human; conditions: 15 μM added extracellularly
[3] = 24 hours incubation of cord blood mononuclear cells, colonies counted after 2 weeks

| Compound | IC50 ([1]; 2 hours of incubation) | IC50 [1, 3] | reduction of toxicity by digestion with NPP and CIP [1] | IC50 (CD38^− HeLa) | ER stores-calcium, % of the control (CD38^− HeLa cells) | basal [Ca^2+]i, % of the control (CD38^− HeLa cells) | basal cytosolic free calcium [Ca^2+]i (CD38^− HeLa cells) | tapsigargine-induced release of calcium from ER stores [Ca^2+]i (CD38^− HeLa cells) | resistance to CD38 catalysed hydrolysis (Recombinant CD38; recombinant CD38) | hydrolysis activity (Recombinant CD38; recombinant CD38, P18 and P24 to adenine and ADPR) | hydrolysis activity ([2]; HeLa-CD38^+ whole cells, P18 and P24 to adenine and ADPR) | rate of increase of intracellular concentration (uptake) (CD38^− cells) | hydrolysis activity (Recombinant CD38) | hydrolysis activity [2] |
| --- | --- | --- | --- | --- | --- | --- | --- | --- | --- | --- | --- | --- | --- | --- |
| Nc1ncnc2c1ncn2[C@@H]1O[C@H](COP(=O)(O)OP(=O)(O)OC[C@H]2O[C@@H](n3cnc4ncnc-4c3N)[C@H](O)[C@@H]2O)[C@@H](O)[C@H]1O [P18] | 30000 nM | 1000 nM | 40 fold | 150 µM | 78% | 52% | 12 nM | 366 nM | resistance | 6.0^1 nmol/min/mg | 0.24^1 nmol/min/mg | approx. 2.4 pmol/min/mg |  |  |
| Nc1ncn([C@@H]2O[C@H](COP(=O)(O)OP(=O)(O)OC[C@H]3O[C@@H](n4cnc5c(N)ncnc54)[C@H](O)[C@@H]3O)[C@@H](O)[C@H]2O)c2ncnc1-2 [P24] |  | 180 nM | 30 fold | 9.8 µM | 60% | 191% | 44 nM | 290 nM |  |  |  | approx. 2.4 pmol/min/mg | 0.25^1 nmol/min/mg | 0.06^1 nmol/min/mg |
